{"source": "patent US5565431A", "about": "“Cancer cell inhibitors and method” (priority 1994, dated 1996)", "origin": "cited, not measured here", "key": {"[1]": {"system": "seven colon cancer cell lines", "conditions": "Garcia et al. (9)"}, "[2]": {"system": "normal colonic mucosa cells", "conditions": "Garcia et al. (9)"}}}
{"smiles": "CO[C@H]1[C@@H](OC)C[C@H](C)[C@@H](OC)C2=CC(=O)C=C(NC(=O)/C(C)=C/C=C\\[C@H](OC)[C@@H](OC(N)=O)/C(C)=C/[C@@H]1C)C2=O", "note": "[herbimycin A]", "values": [{"measurement": "Inhibition of seven colon cancer cell lines", "setting": "[1]", "result": "greater than 40%"}, {"measurement": "Inhibition of normal colonic mucosa cells", "setting": "[2]", "result": 12, "unit": "%"}]}
